Results from patent publication US12485117B2, “Compositions and methods for activating signaling through the CB1 cannabinoid receptor for treating and preventing diseases and disorders characterized by abnormal cellular accumulation of sphingolipids such as sphingomyelin” (Wylder Nation Foundation, priority 2018, dated 2025).

Legend:
[1] = test system: cultured primary hippocampal neurons from ASMko mice; assay: Sphingomyelin levels by enzymatic assay in cultured primary hippocampal neurons from ASMko mice; assay type: cell-based, mouse
Excerpt: FIGS. 5A-5D show sphingomyelin and endocannabinoid levels in cultured primary hippocampal neurons and hippocampal tissue, respectively, from ASMko and wildtype mice.
Statistical significance Student's t-test, *P<0.05, **P<0.005, n=3 independent cultures.
Statistical significance Student's t-test, **P<0.005, n=3 independent cultures.
Anandamide (AEA) is the major endogenous CB1 ligand. We therefore tested whether increased levels of anandamide affected sphingomyelin levels in cultured primary hippocampal neurons from ASMko mice. Anandamide was increased in two ways: • 1. By incubating the neuronal cultures with exogenous anandamide; and • 2. By incubating the neuronal cultures with PF-04457845, which is an inhibitor of the anandamide hydrolytic enzyme FAAH. Inhibition of FAAH causes accumulation of anandamide by inhibiting FAAH-mediated hydrolyzation of anandamide.
The following experiments were performed in three independent cultures of hippocampal neurons derived from ASMko mice. Treatments were done at 11-13 days in vitro when these cells are considered mature and functional.
To set the optimal conditions for such hydrolysis in terms of concentration and time of incubation, anandamide was added to the culture medium of mature ASMko hippocampal neurons at 0, 5, 25, 50 and 100 μM for 30 minutes or 1 hour. […] The optimal conditions for SM degradation were in a range of concentration of 25-50 μM for 1 hour. […] We therefore decided to use 25 μM anandamide for 1-hour incubation time in our next experiments.
Similar to the anandamide dose/time response experiment above, we performed another dose response experiment using URB597 (URB), an inhibitor of the anandamide-hydrolyzing enzyme FAAH, to be used as reference for the other FAAH inhibitors. The experiments were done in the presence or absence of exogenous anandamide. URB was added to the culture medium of ASMko mature neurons at 0, 5, 25 and 50 μM for 1 hour with or without □□ μM anandamide.
We next compared URB efficacy to reduce SM levels with that of other FAAH inhibitors PF-04457845 (PF) and JNJ-1661010 (JNJ).

[2] = test system: permeabilized ASMko neurons; assay: Lysenin staining of SM in intracellular compartments of permeabilized ASMko neurons; assay type: cell-based, mouse; settings: 1 hour at 50 μM (FIG. 9)
Experimental: Statistical significance Student's t-test, *P<0.05, n=3 independent cultures.
To determine whether SM hydrolysis induced by FAAH inhibitors was taking place not only at the cell surface, but also in intracellular compartments, we performed staining with lysenin, a worm toxin that specifically binds to SM, in permeabilized ASMko neurons non-treated or treated with anandamide, URB, PF-04457845 or JNJ for 1 hour at 50 μM.

ASMko cultured neurons = assay: TUNEL assay of neuronal death in ASMko cultured neurons; assay type: cell-based, mouse; settings: 50 μM for 1 hour
Experimental: FIG. 10B is a graph showing mean±SEM percentage of apoptotic cells, measured by TUNEL assay, with respect to the positive control in which the cells were treated with H202.
The percentage of dying neurons showing DNA fragmentation was 5-8% in the treated ASMko cultures similar to the non-treated ones.

wt and ASMko mice [3] = assay: Weekly body weight during 8-week oral treatment; assay type: in vivo, mouse; settings: 0.3 mg/kg oral gavage every three days, 8 weeks
Experimental: We divided wt and ASMko into four groups: wt, wt+FAAHi, ASMko, ASMko+FAAHi. Each group included 14 animals with females and males in equal proportions.
(§1) Treatment started at 7 weeks of age and continued for 8 weeks. PF-04457845 was dissolved in 0.9% NaCl and delivered through oral gavage at a dose of 0.3 mg/kg every three days. We chose this dose based on the studies published by Ahn et al., (J Pharm Exp Ther 2011). Control groups received same volume of 0.9% NaCl without PF-04457845.
Behavioral analyses were performed in the last 2 weeks of treatment while still administering the drug. Then, half of the mice were sacrificed for biochemical and histological analysis and the other half continued receiving the treatment to monitor life span.

wt and ASMko mice [4] = assay: Tail Suspension Test; assay type: in vivo, mouse; settings: 0.3 mg/kg every three days
Experimental: (§2) FIGS. 13A-13C show the effect of PF-04457845 treatment on various behavioral functions. […] (n=14; **p<0.01, *p<0.05).
as §1
(§3) Mood alterations were monitored by the Tail Suspension Test (FIG. 13B) and by the Elevated Plus Maze test (FIG. 13C) that give an idea of depressive state and anxiety, respectively. […] PF-04457845 treatment had no effect in the behavior of wt mice.

wt and ASMko mice [5] = assay: Elevated Plus Maze test; assay type: in vivo, mouse; settings: 0.3 mg/kg every three days
Experimental: as §2, §1, §3

astrocytes = assay: Astrocytes by GFAP immunofluorescence; assay type: in vivo, mouse; settings: 0.3 mg/kg every three days
Experimental: Representative images of astrocytes stained for GFAP (red) in the cerebellum, hippocampus and cortex of wt and ASMko mice treated or not with PF-04457845. […] Graphs show mean±SEM GFAP intensity in arbitrary units (n=7, **p<0.01, *p<0.05).
as §1
Brain inflammation was determined by analysis of glial cells in the cerebellum, hippocampus and cortex. The number and morphology of microglia was analyzed by immunofluorescence staining with the marker iba-1 (FIG. 16). […] PF-04457845 treatment had no effect in microglia of wt mice. The amount of astrocytes was analyzed by immunofluorescence with the marker GFAP (FIG. 17). […] PF-04457845 treatment had no effect in astrocytes of wt mice (FIG. 17).

pediatric ASMD patient = assay: Single patient preliminary clinical trial: liver enzymes ALT and AST; assay type: in vivo, human
Excerpt: Based on the compelling safety and efficacy data from the ASMko mouse model, we submitted an expanded access request to the Food and Drug Administration for a single patient preliminary clinical trial to assess the effect of PF-04457845 administration to a single pediatric ASMD patient. The FDA approved the trial, and it is presently ongoing. The patient received their first does of PF-04457845 (which is being administered via NG-tube delivery) nearly one year ago now, and the patient will continue to be monitored for improvement in ASMD-related symptoms and/or markers.
Although clinical trial data is not available to us yet, it is worth noting as per the normal standard of care for this patient, weekly or biweekly monitoring of liver enzymes alanine aminotransferase (ALT) and aspartate transaminase (AST) has been ongoing since before initiation of the trial and these analyses are ongoing. Elevated blood levels of AST and ALT are seen in 50%-75% of ASMD patients (McGovern M, et al., Orphanet J Rare Dis. 2017; 12: 41) and are indicative of liver damage caused by the progression of the disease. […] Moreover, ALT/AST ratios appear stable.

[6] = about one year of treatment via NG-tube, preliminary

O=C(Nc1cccnn1)N1CCC(=Cc2cccc(Oc3ccc(C(F)(F)F)cn3)c2)CC1 [PF-04457845]
SM hydrolysis ([1]; 50 μM and 1 hour (FIG. 8)): promoted SM hydrolysis
sphingomyelin levels ([1]; ASMko neurons, 1 hour incubation (FIG. 5A)): reduced sphingomyelin levels
SM levels in intracellular compartments (lysenin staining) [2]: significantly reduced SM levels
neuronal death as assessed by TUNEL (ASMko cultured neurons): did not induce neuronal death
body weight gain (wt and ASMko mice [3]; ASMko mice): significantly improved
body weight gain (wt and ASMko mice [3]; wt mice): not affected
behavior in Tail Suspension Test (depressive state) (wt and ASMko mice [4]; ASMko mice): normalized
behavior in Tail Suspension Test (wt and ASMko mice [4]; wt mice): no effect
behavior in Elevated Plus Maze test (anxiety) (wt and ASMko mice [5]; ASMko mice): normalized
behavior in Elevated Plus Maze test (wt and ASMko mice [5]; wt mice): no effect
GFAP intensity in cerebellum, hippocampus and cortex (astrocytes; ASMko mice): reduced GFAP intensity in all areas but the effect was significant only in the cerebellum
astrocytes (GFAP) (astrocytes; wt mice): no effect
ALT/AST ratios (pediatric ASMD patient; about one year of treatment): stable
ALT, current value relative to pre-treatment (pediatric ASMD patient; [6]): approximately half
AST, current value relative to pre-treatment (pediatric ASMD patient; [6]): approximately half
tolerability (pediatric ASMD patient; about one year of treatment, preliminary): well tolerated without signs of liver toxicity
